Reference: patent publication US4730042A, “Compounds 1 or 3-hydroxy-4-benzyl-6-methyl-7-(4-isopropylamino-butoxy)-1,3-dihydro[3,4- C]pyridine and 2-methyl-3-(4-isopropyl-aminobutoxy)-4-(1'-morphilinomethyl)-5-hydroxyme thyl-6-benzyl pyridine, useful for treating cardiac arrhythmias” (priority 1985, dated 1988)

How the values were obtained:
[1] = test system: ECG (ST depression, disappearance of P, extrasystoles); assay: Toxic changes in the ECG and therapeutic index in the rat; assay type: in vivo; conditions: i.v., toxic effect in the ECG (occurrence of extrasystoles)
Description: (§1) The test animals used were male Sprague-Dawley rats weighing 180-300 g. Anesthesia was effected with 100 mg/kg of thiobutabarbital, administered intraperitoneally. To induce arrhythmias, aconitine was infused at a dosage rate of 5 μg per kg per min. The test substances were administered intravenously, directly before the beginning of the aconitine infusion. The parameter measured is the amount of aconitine which leads to the first signs of arrhythmias (disappearance of P, ventricular extrasystoles and tachycardia) in the ECG of the animals. In the case of untreated animals, the arrhythmogenic aconitine dose was 16.5±0.34 μg/kg (n=120). The dose which causes a 50% increase was determined from the linear relationship between log dose (mg/kg) of the test substances and the relative increase in the arrhythmogenic aconitine dose (Δ%).
(§2) The dose of test substance which causes toxic changes in the ECG (ST depression, disappearance of P, extrasystoles) was also determined. The quotient of the ECG-toxic dose and the antiarrhythmic ED 50 was evaluated as a measure of the therapeutic index of the novel compounds.

[2] = as above; assay type: in vivo; conditions: in vivo, iv, quotient of ECG-toxic dose and antiarrhythmic ED 50
Description: as §1, §2

[3] = test system: aconitine-induced arrhythmia; assay: Antiarrhythmic effect on the aconitine-induced arrhythmia in anesthetized rats; assay type: in vivo, male Sprague-Dawley rats; conditions: for ED50: Rattus norvegicus, iv, read-out: Antiarrhythmic effect ED 50; for Antiarrhythmic effect, maximum effect / maximum effect compared with barucainid, in words: rat; for Antiarrhythmic effect, maximum effect: i.v., maximum relative increase in the arrhythmogenic aconitine dose; for maximum effect compared with barucainid, in words: versus barucainid
Description: The novel compounds have a powerful antiarrhythmic action and are useful for the therapy of cardiac arrhythmias. The pharmacological investigations to determine the antiarryhythmic action were carried out using the antiarrhythmic barucainid as a comparison.
as §1
The maximum effect achieved (Δ%) is evaluated as a further criterion of the antiarrhythmic efficacy.

Structure (SMILES) | ECG-toxic dose [1] [mg/kg] | selectivity ratio [2] | ED50 [3] [mg/kg] | Antiarrhythmic effect, maximum effect [3] | maximum effect compared with barucainid, in words [3]
Cc1nc(Cc2ccccc2)c2c(c1OCCCCNC(C)C)COC2 [Barucainid, reference compound] | 10.0 | 5.13 | 1.95 | 105 Δ % | –
Cc1nc(Cc2ccccc2)c(CO)c(CN2CCOCC2)c1OCCCCNC(C)C.Cl.Cl.Cl [Example 1, 2-methyl-3-(4-isopropylaminobutoxy)-4-(1'-morpholinomethyl)-5-hydroxymethyl-6-benzylpyridine trihydrochloride] | 2.15 | 11.3 | 0.19 | 111 Δ % | –
Cc1nc(Cc2ccccc2)c2c(c1OCCCCNC(C)C)C(O)OC2.Cl.Cl (centres unmarked) [Example 2, 1-hydroxy-4-benzyl-6-methyl-7-(4-isopropylaminobutoxy)-1,3-dihydrofuro[3,4-C]pyridine dihydrochloride] | > 4.64 | > 9.9 | 0.468 | 239 Δ % | superior to barucainid
Cc1nc(Cc2ccccc2)c2c(c1OCCCCNC(C)C)COC2O.Cl.Cl (centres unmarked) [Example 3, 3-hydroxy-4-benzyl-6-methyl-7-(4-isopropylaminobutoxy)-1,3-dihydrofuro[3,4-C]pyridine dihydrochloride] | 10 | 14.4 | 0.695 | 276 Δ % | superior to barucainid
Cc1nc(Cc2ccc(O)cc2)c2c(c1OCCCCNC(C)C)COC2 [Example 4, 4-(p-hydroxybenzyl)-6-methyl-7-(4-isopropylaminobutoxy)-1,3-dihydrofuro[3,4-C]pyridine] | 46.4 | 17.3 | 2.69 | 263 Δ % | superior to barucainid
